In patent US7462614B2, “Imidazotriazine compounds” (Smithkline Beecham Corporation, priority 2003, dated 2008):

Biological target: T1, truncated human PLK1 (kinase domain) (Homo sapiens, UniProt P53350)
T1 construct: made in house; host or cells: baculovirus-infected T. ni insect cells
Assay: Assay for Inhibition of PLK1 (33P SPA enzyme activity)
Assay type: biochemical
Conditions: 1 μM ATP, 2 nM enzyme; read-out: Ave pIC50 PLK Enzyme Inhibition (converted)
Experimental: I. Assay for Inhibition of PLK1
A. Preparation of 6× N-Terminal His-Tagged PLK Kinase Domain
All procedures are performed at 4° C. Cells are lysed in 25 mM HEPES, 200 mM NaCl, 25 mM imidazole; pH 8.0. The homogenate is centrifuged at 14K rpm in a SLA-1500 rotor for 40 min and the supernatant filtered through a 1.2 micron filter. The supernatant is loaded onto a Nickel chelating Sepharose (Amersham Pharmacia) column and washed with 25 mM HEPES, 500 mM NaCl, 25 mM imidazole; pH 8.0. […] PLK is concentrated using a 10 kDa molecular weight cutoff membrane and then loaded onto a Superdex 75 gel filtration (Amersham BioSciences) column equilibrated in 25 mM HEPES, 1 mM DTT, 500 mM NaCl; pH 8.0. Fractions containing PLK are determined by SDS-PAGE. PLK is pooled, aliquoted and stored at […]. Samples are quality controlled using mass spectrometry.
B. Enzyme Activity±Inhibitors is Determined As Follows:
Compounds are added to the plate (1 μL in 100% DMSO).
Immediately upon addition of enzyme and thorough mixing, add 20 uL per well into 384-well white plates containing compounds and controls. […] The enzymatic reaction is stopped with 50 μl of bead mix (50 mM EDTA, 2 mg/ml Streptavidin-coated SPA beads in Standard Dulbecco's PBS (without Mg^2+and Ca^2+), and 60 μM ATP).

T1 sequence (P53350 21-346): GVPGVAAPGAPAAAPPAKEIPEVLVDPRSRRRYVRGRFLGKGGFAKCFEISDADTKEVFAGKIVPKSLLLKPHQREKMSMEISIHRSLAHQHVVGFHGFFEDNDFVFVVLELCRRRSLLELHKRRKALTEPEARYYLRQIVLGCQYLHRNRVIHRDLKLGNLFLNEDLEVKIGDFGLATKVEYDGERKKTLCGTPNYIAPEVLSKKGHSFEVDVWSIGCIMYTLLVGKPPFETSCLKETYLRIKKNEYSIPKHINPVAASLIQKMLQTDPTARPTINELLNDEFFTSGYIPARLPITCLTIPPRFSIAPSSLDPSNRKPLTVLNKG

| SMILES | IC50 [µM] |
| --- | --- |
| COc1ccc(Nc2ncc3c(C)nc(C4CC4)n3n2)cc1 [Example 84, 7-Cyclopropyl-5-methyl-N-[4-(methyloxy)phenyl]-imidazo[5,1-f][1,2,4]triazin-2-amine] | 0.1 to 10 |
| COc1cc(Nc2ncc3c(C)nc(-c4ccccc4[N+](=O)[O-])n3n2)cc(OC)c1OC [Example 2, 5-Methyl-7-(2-nitrophenyl)-N-(3,4,5-trimethoxyvhenyl)imidazo[5,1-f][1,2,4]triazin-2-amine] | 0.1 to 10 |
| COc1cccc(Nc2ncc3c(C)nc(-c4ccccc4)n3n2)c1 [Example 106, 5-Methyl-N-[3-(methyloxy)phenyl]-7-phenylimidazo[5,1-f][1,2,4]triazin-2-amine] | 0.1 to 10 |
| COc1cc(Nc2ncc3c(C)nc(-c4cn(C)c5ccccc45)n3n2)cc(OC)c1OC [Example 35, 5-Methyl-7-(1-methyl-1H-indol-3-yl)-N-(3,4,5-trimethoxyphenyl)-imidazo[5,1-f][1,2,4]triazin-2-amine] | 0.1 to 10 |
| COc1ccc(Nc2ncc3c(C)nc(-c4ccc(Br)s4)n3n2)cc1 [Example 70, 7-(5-Bromo-2-thienyl)-5-methyl-N-[4-(methyloxy)phenyl]imidazo[5.1-f][1,2,4]triazin-2-amine] | 0.1 to 10 |
| COc1cc(Nc2ncc3c(C)nc(-c4cccc(Nc5ccc(CN6CCN(C)CC6)cc5)c4)n3n2)cc(OC)c1OC [Example 68, 5-Methyl-7-[3-({4-[(4-methylpiperazin-1-yl)methyl]phenyl}-amino)phenyl]-N-/(3,4,5-trimethoxyphenyl)imidazo[5,1-f][1,2,4]triazin-2-amine] | > 10 |
| COc1ccc(Nc2ncc3c(C)nc(CC4CCCCC4)n3n2)cc1 [Example 91, 7-(Cyclohexylmethyl)-5-methyl-N-[4-(methyloxy)phenyl]-imidazo[5,1-f][1,2,4]triazin-2-amine] | 0.1 to 10 |
| COc1ccc(Nc2ncc3c(C)nc(-c4ccccc4)n3n2)cc1 [Example 104, 5-Methyl-N-[4-(methyloxy)phenyl]-7-phenylimidazo[5,1-f][1,2,4]triazin-2-amine] | 0.1 to 10 |
| Cc1nc(-c2ccccc2)n2nc(Nc3ccc(OCCN(C)C)cc3)ncc12 [Example 96, N-(4-{[2-(Dimethylamino)ethyl]oxy}phenyl)-5-methyl-7-phenylimidazo[5.1-f][1,2,4]triazin-2-amine] | 0.1 to 10 |
| COc1ccc(Nc2ncc3c(C)nc(-c4ccccc4F)n3n2)cc1 [Example 86, 7-(2-FluorophenylFluorophenyl)-5-methyl-N-[4-(methyloxy)phenyl]imidazo[5,1-f][1,2,4]triazin-2-amine] | 0.1 to 10 |
| COc1cc(Nc2ncc3c(C)nc(-c4cccc(-c5ccccc5C(F)(F)F)c4)n3n2)cc(OC)c1OC [Example 61, 5-Methyl-7-[2′-(trifluoromethyl)-1,1′-biphenyl-3-yl]-N-(3,4,5-trimethoxyphenyl)imidazo[5,1-f][1,2,4]triazin-2-amine] | 0.1 to 10 |
| CCS(=O)(=O)c1ccc(OC)c(Nc2ncc3c(C)nc(-c4cccc(Br)c4)n3n2)c1 [Example 14, 7-(3-Bromophenyl)-N-[5-(ethylsulfonyl)-2-methoxyphenyl]-5-methylimidazo[5,1-f][1,2,4]triazin-2-amine] | 0.1 to 10 |
| Cc1nc(-c2ccccc2)n2nc(Nc3ccc(OCCN4CCOCC4)cc3)ncc12 [Example 102, 5-Methyl-N-(4-{[2-(4-morpholinyl)ethyl]oxy}phenyl)-7-phenylimidazo[5,1-f][1,2,4]triazin-2-amine] | 0.1 to 10 |
| Cc1nc(-c2ccccc2)n2nc(Nc3ccccc3)ncc12 [Example 105, 5-Methyl-N,7-diphenylimidazo[5,1-f][1,2,4]triazin-2-amine] | 0.1 to 10 |
| COc1cc(Nc2ncc3c(C)nc(-c4cncc(Br)c4)n3n2)cc(OC)c1OC [Example 11, 7-(5-Bromopyridin-3-yl)-5-methyl-N-(3,4,5-trimethoxyphenyl)-imidazo[5.1-f][1,2,4]triazin-2-amine] | 0.1 to 10 |
| COc1ccc(Nc2ncc3c(C)nc(C4CCCCC4)n3n2)cc1 [Example 85, 7-Cyclohexyl-5-methyl-N-[4-(methyloxy)phenyl]imidazo[5,1-f][1,2,4]triazin-2-amine] | 0.1 to 10 |
| COc1ccc(OC)c(Nc2ncc3c(C)nc(-c4cccc(C(F)(F)F)c4)n3n2)c1 [Example 55, N-(2,5-Dimethoxyphenyl)-5-methyl-7-[3-(trifluoromethyl)phenyl]-imidazo[5,1-f][1,2,4]triazin-2-amine] | 0.1 to 10 |
| COc1ccc(Nc2ncc3c(C)nc(-c4ccc(F)cc4)n3n2)cc1 [Example 82, 7-(4-Fluorophenyl)-5-methyl-N-[4-(methyloxy)phenyl]-imidazo[5,1-f][1,2,4]triazin-2-amine] | 0.1 to 10 |
| COc1ccc(Nc2ncc3c(C)nc(Cc4ccccc4)n3n2)cc1 [Example 88, 5-Methyl-N-[4-(methyloxy)phenyl]-7-(phenylmethyl)imidazo[5,1-f][1,2,4]triazin-2-amine] | 0.1 to 10 |
| CC(=O)Nc1ccc(Nc2ncc3c(C)nc(-c4ccccc4)n3n2)cc1 [Example 94, N-{4-[(5-Methyl-7-phenylimidazo[5,1-f][1,2,4]triazin-2-yl)amino]phenyl}acetamide] | 0.1 to 10 |
| COc1cc(Nc2ncc3c(C)nc(-c4ccccc4Sc4ccccc4C#N)n3n2)cc(OC)c1OC [Example 38, 2-[(2-{5-Methyl-2-[(3,4,5-trimethoxyphenyl)amino]imidazo[5,1-f][1,2,4]triazin-7-yl}phenyl)thio]benzonitrile] | 0.1 to 10 |
| CSc1ccc(Nc2ncc3c(C)nc(-c4ccccc4)n3n2)cc1 [Example 95, 5-Methyl-N-[4-(methylthio)phenyl]-7-phenylimidazo[5,1-f][1,2,4]triazin-2-amine] | 0.1 to 10 |
| Cc1nc(-c2cccc(C(F)(F)F)c2)n2nc(Nc3ccc(S(N)(=O)=O)cc3)ncc12 [Example 45, 4-({5-Methyl-7-[3-(trifluoromethyl)phenyl]imidazo[5,1-f][1,2,4]triazin-2-yl}amino)benzenesulfonamide] | 0.1 to 10 |
| COc1ccc(Nc2ncc3c(C)nc(-c4ccoc4)n3n2)cc1 [Example 80, 7-(3-Furanyl)-5-methyl-N-[4-(methyloxy)phenyl]imidazo-[5,1-f][1,2,4]triazin-2-amine] | 0.1 to 10 |
| COc1cc(Nc2ncc3c(C)nc(-c4cccc(Nc5cccc(CS(=O)(=O)N(C)C)c5)c4)n3n2)cc(OC)c1OC [Example 67, N,N-Dimethyl-1-{3-[(3-{5-methyl-2-[(3,4,5-trimethoxyphenyl)amino]imidazo[5,1-f][1,2,4]triazin-7-yl}phenyl)amino]phenyl}methanesulfonamide] | 0.1 to 10 |
| COc1ccc(Nc2ncc3c(C)nc(-c4ccccc4Cl)n3n2)cc1 [Example 75, 7-(2-Chlorophenyl)-5-methyl-N-[4-(methyloxy)phenyl]imidazo[5,1-f][1,2,4]triazin-2-amine] | 0.1 to 10 |
| COc1ccc(Nc2ncc3c(C)nc(-c4cccc(C(F)(F)F)c4)n3n2)c(OC)c1 [Example 54, N-(2,4-Dimethoxyphenyl)-5-methyl-7-[3-(trifluoromethyl)phenyl]-imidazo[5,1-f][1,2,4]triazin-2-amine] | 0.1 to 10 |
| Cc1nc(-c2ccccc2)n2nc(Nc3ccc(S(N)(=O)=O)cc3)ncc12 [Example 20, 4-[(5-Methyl-7-phenylimidazo[5,1-f][1,2,4]triazin-2-yl)amino]benzenesulfonamide] | 0.1 to 10 |
